In ChEMBL document CHEMBL2074263, “P-glycoprotein efflux at the blood-brain barrier mediates differences in brain disposition and pharmacodynamics between two structurally related neurokinin-1 receptor antagonists” (J Pharmacol Exp Ther, 2001):

Molecular target: P-glycoprotein 1 and 3 (MDR1a/MDR1b) (Mus musculus, UniProt P21447+P06795)
Assay: TP_TRANSPORTER: increase in brain concentration in mdr1a/1b(-/-) mouse
Type: functional, organism-based
Conditions: in vivo

- Activity: substrate [+]
SMILES: COc1ccc(N(C)S(C)(=O)=O)cc1CN[C@H]1CCCN[C@H]1c1ccccc1
